Experiments:
[1] = tested on: C. krusei; conditions: C. krusei (13); cited from earlier work
[2] = tested on: C. parapsilosis; conditions: C. parapsilosis (22); cited from earlier work
[3] = tested on: C. albicans; conditions: C. albicans (73); cited from earlier work
[4] = tested on: C. guillermondii; conditions: C. guillermondii (5); cited from earlier work
[5] = tested on: C. glabrata; conditions: C. glabrata (16); cited from earlier work
[6] = tested on: C. tropicalis; conditions: C. tropicalis (21); cited from earlier work
[7] = tested on: C. albicans; conditions: against C. albicans; cited from earlier work
[8] = tested on: reconstituted vaginal epithelial cells; assay: In vitro permeation test through reconstituted vaginal epithelium, Franz cell; assay type: in vitro ADME; conditions: reconstituted human vaginal epithelium, phosphate buffer pH 7.4, 32° C.
Protocol: The in vitro dissolution and transdermal permeation tests of sertaconazole nitrate from the cream formulations of Example 1 were evaluated in comparison with a conventional cream formulation of 2% sertaconazole nitrate.
Both tests were carried out with Franz cell-type diffusion systems, with a diffusional area of 2.54 cm^2. 1 ml of cream was placed in the donor compartment and 11 ml of a suitable receptor medium were placed in the receptor compartment. For the dissolution test, a 0.45-μm Millipore membrane of nylon esters was used, and the receptor medium was made up of a mixture of ethanol-water (1:1). Vaginal epithelium was used as permeation membrane and phosphate buffer solution at pH 7.4 was used as the receptor medium.
The 4-cm^2 membranes used in the permeation test were formed by reconstituted vaginal epithelial cells (5-day culture) from transformed cells of human vaginal epithelium on polycarbonate support. These cells were obtained from cell lines of vulvar epidermoid carcinomas. The test temperature was 32° C. for both cases.

Row | absorption (permeation) through the vaginal mucosa [8] | Structure (SMILES) | minimum inhibitory concentration (MIC) [1] | minimum inhibitory concentration (MIC) [2] | minimum inhibitory concentration (MIC) [3] | minimum inhibitory concentration (MIC) [4] | minimum inhibitory concentration (MIC) [5] | minimum inhibitory concentration (MIC) [6] | fungicide activity compared with imidazole antifungal drugs [7]
1 |  | c1ccc(-c2ccc(C(c3ccccc3)n3ccnc3)cc2)cc1 (centres unmarked) [Bifonazole, bifonazole] | 2.20 | 3.76 | 3.6 | 3.87 | 4.09 | 9.51 | 
2 | less than 0.1 % of the dose | Clc1ccc(C(Cn2ccnc2)OCc2csc3c(Cl)cccc23)c(Cl)c1 (centres unmarked) [Sertaconazole, sertaconazole] | 0.38 | 0.31 | 1.02 | 0.51 | 0.78 | 1.67 | superior to most imidazole antifungal drugs
3 |  | Clc1ccc(COC(Cn2ccnc2)c2ccc(Cl)cc2Cl)cc1 (centres unmarked) [Econazole, econazole] | 0.91 | 0.75 | 2.24 | 1.11 | 2.39 | 3.14 | 

— US20060165803A1, “Pharmaceutical compositions of sertaconazole for vaginal use” (priority 2002, published 2006)
